Tests used:
[1] = system: human iPS cell line HC-6 #10; assay: Maturation culture of cell clusters in viscous medium (Experiment 16); type: cell-based; settings: IGF-1 20 ng/ml, 10% fetal bovine serum and EC23 100 nM added together to the culture medium; day 45
Procedure: Cell clusters were maturation-cultured in a viscous medium in accordance with the method shown in the upper section of FIG. 30. The viscous medium was prepared with reference to Japanese Patent No. 6176770. Specifically, 3 g of methylcellulose (manufactured by Sigma. Aldrich, Inc., viscosity: 4000 cP, M0512) was weighed, and sterilized by autoclaving in a 500 ml wide-open medium bottle containing an agitator, and then 100 ml of medium was added thereto. As the medium, a 1:1 in volume mixture of F-12+Glutamax medium and IMDM+Glutamax medium supplemented with 5% Knockout Serum Replacement, 10% fetal bovine serum (manufactured by Biosera), 450 μM 1-monothioglycerol, lx Chemically defined lipid concentrate, 50 unit/ml penicillin-50 μg/ml streptomycin, 20 ng/ml FGF-TS, 20 ng/ml EGF, 20 ng/ml IGF-1 (manufactured by R&D Systems), 10 μg/ml Heparin Sodium, 1 μM SB431542, 1 μM K02288, 300 nM CHIR99021, and 100 nM EC23 (retinoic acid signaling pathway-activating substance) was used. The medium bottle containing methylcellulose supplemented with the medium was stirred in a cryogenic chamber overnight using a stirrer corresponding to a high viscosity liquid (manufactured by Asahi Rika Factory. Ltd, AMG-H). […]

[2] = system: human iPS cell line HC-6 #10; assay: Effect of TAK1 inhibitor in cell cluster production (Experiment 15); type: cell-based; settings: 5z-7-oxozeaenol 2 μM from day 3 (step (3)); day 21
Procedure: Human iPS cells (HC-6 #10 cell line, obtained from the Institute of Physical and Chemical Research) were subjected to maintenance culturing and step (a) in the same manner as in Experiment 1. The suspension culturing was started on a 96-well culture plate in the same manner as in Experiment 1, except that the number of cells per well was 9×10^3 cells.
At the start of suspension culturing (day 0 after the start of suspension culturing, start of step (1)), Y27632 (final concentration 20 μM), IWP-2 (final concentration 2 μM), SB-431542 (final concentration 1 μM) and CHIR99021 (final concentration 300 nM) were added to the serum-free medium.
On day 2 after the start of suspension culturing, a serum-free medium being free of Y27632 and containing SB-431542, BMP4, IWP-2 and CHIR99021 was added at 100 μl per well (start of step (2)). BMP4 was added to the medium at 3 nM to be a final concentration in the well of 1.5 nM.
On day 3 after the start of suspension culturing, the medium was half exchanged with a serum-free medium being free of Y27632 and BMP4 and containing IWP-2, SB-431542, FGF2, Heparin Sodium, and CHIR99021. In addition, a TAK1 inhibitor 5z-7-oxozeaenol (manufactured by Cayman Chemical) was added to the medium at 4 μM to be a final concentration in the well of 2 μM (start of step (3a)). […]

Compound | maintenance of olfactory epithelial-like tissues [1] | formation of olfactory epithelium-like tissues on the surface of the cell cluster versus cell cluster produced without the TAK1 inhibitor [2]
CC1(C)CCC(C)(C)c2cc(C#Cc3ccc(C(=O)O)cc3)ccc21 | could further efficiently maintain olfactory epithelial-like tissues | –
COc1cc(O)c2c(c1)/C=C/C[C@H](O)[C@H](O)C(=O)/C=C\C[C@H](C)OC2=O [TAK1 inhibitor, (3S,5Z,8S,9S,11E)-3,4,9,10-tetrahydro-8,9,16-tri hydroxy-14-methoxy-3-methyl-1H-2-benzoxacyclotetradecin-1,7(8H)-dione] | – | more efficient formation of olfactory epithelium-like tissues
IGF: 20 ng/ml IGF-1 (manufactured by R&D Systems) in the viscous medium | could further efficiently maintain olfactory epithelial-like tissues | –

From patent publication US20210308188A1, “CELL CLUSTER INCLUDING OLFACTORY NEURON OR PRECURSOR CELL THEREOF, AND METHOD FOR PRODUCING SAME” (SUMITOMO CHEMICAL COMPANY, LIMITED, priority 2018, published 2021)
